Source: US6503912B1, “Substituted guanidine derivatives” (Bayer Aktiengesellschaft, priority 1998, dated 2003)

Experiments:
[1] = tested on: larvae of the army worm (Spodoptera frugiperda); assay: Spodoptera Frugiperda Test; assay type: in vivo; details: active compound concentration 0.1%; dipped cabbage leaves; after 7 days
Description: Spodoptera Frugiperda Test
(§1) Solvent: 7 parts by weight of dimethylformamide
(§2) Emulsifier: 1 part by weight of alkylaryl polyglycol ether
To produce a suitable preparation of active compound, 1 part by weight of active compound is mixed with the stated amounts of solvent and emulsifier, and the concentrate is diluted with water to the desired concentration.
Cabbage leaves (Brassica oleracea) are treated by being dipped into the preparation of active compound of the desired concentration and are populated with larvae of the army worm (Spodoptera frugiperda) whilst the leaves are still moist.
After the desired period of time, the kill in % is determined. 100% means that all larvae have been killed; 0% means that none of the larvae has been killed.

[2] = tested on: Mosquito larvae (Aedes aegypti); assay: Aedes Test; assay type: in vivo; details: active compound concentration 0.0016%; after 4 hours
Description: Solvent: 1000 parts by weight of methanol
To produce a suitable preparation of active compound, 1 part by weight of active compound is mixed with the stated amount of solvent, and the concentrate is diluted with water to the desired concentrations.
Mosquito larvae (Aedes aegypti) are placed into the preparation of active compound of the desired concentration.
After the desired period of time, the effect on the larvae is determined.

[3] = tested on: black bean aphid (Aphis fabae); assay: Aphis Test (Systemic Action); assay type: in vivo; details: active compound concentration 0.01%, watering of Vicia faba, after 4 days
Description: Aphis Test (Systemic Action)
as §1, §2
(§3) To produce a suitable preparation of active compound, 1 part by weight of active compound is mixed with the stated amount of solvent, and the stated amount of emulsifier, and the concentrate is diluted with water to the desired concentration.
Bean plants (Vicia faba) which are heavily infested by the black bean aphid (Aphis fabae) are watered with in each case 20 ml of the preparation of active compound of the desired concentration so that the preparation of active compound penetrates into the soil without wetting the shoot. The active compound is taken up by the roots and passed on to the shoot.
(§4) After the desired period of time, the kill in % is determined. 100% means that all aphids have been killed; 0% means that none of the aphids has been killed.

[4] = tested on: eggs of the onion fly (Hylemyia antiqua); assay: Hylemyia Test; assay type: in vivo; details: active compound concentration 0.05%; artificial feed; after 7 days
Description: (§5) Solvent: 100 parts by weight of acetone
(§6) 1900 parts by weight of methanol
(§7) To produce a suitable preparation of active compound, 1 part by weight of active compound is mixed with the stated amount of solvent, and the concentrate is diluted with methanol to the desired concentration.
A stated amount of the preparation of active compound of the desired concentration is pipetted onto a standardized quantity of artificial feed. After the methanol has evaporated, about 20 eggs of the onion fly (Hylemyia antiqua) are placed on the feed.
After the desired period of time, the kill of the eggs or larvae in % is determined. 100% means that all animals have been killed; 0% means that none of the animals has been killed.

[5] = tested on: larvae of the green rice leaf-hopper (Nephotettix cincticeps); assay: Nephotettix Test; assay type: in vivo; details: active compound concentration 0.1%; dipped rice seedlings; after 6 days
Description: as §1, §2, §3
Rice seedlings (Oryza sativa) are treated by being dipped into the preparation of active compound of the desired concentration and are populated with larvae of the green rice leaf-hopper (Nephotettix cincticeps) while the seedlings are still moist.
After the desired period of time, the kill in % is determined. 100% means that all leaf-hoppers have been killed; 0% means that none of the leaf-hoppers has been killed.

[6] = tested on: mustard beetle larvae (Phaedon cochleariae); assay: Phaedon larvae Test; assay type: in vivo; details: active compound concentration 0.1%; dipped cabbage leaves; after 7 days
Description: as §1, §2
To produce a suitable preparation of active compound, 1 part by weight of active compound is mixed with the stated amount of solvent and the stated amount of emulsifier, and the concentrate is diluted with water to the desired concentration.
Cabbage leaves (Brassica oleracea) are treated by being dipped into the preparation of active compound of the desired concentration and are populated with mustard beetle larvae (Phaedon cochleariae) whilst the leaves are still moist.
After the desired period of time, the kill in % is determined. 100% means that all beetle larvae have been killed; 0% means that none of the beetle larvae has been killed.

[7] = tested on: larva (L2-L3) of the army worm (Spodoptera frugiperda); assay: Spodoptera Frugiperda Test/artificial Feed; assay type: in vivo; details: active compound concentration 0.05%; artificial feed; after 7 days
Description: Spodoptera Frugiperda Test/arfificial Feed
as §5, §6, §7
A stated amount of the preparation of active compound of the desired concentration is pipetted onto a standardized quantity of artificial feed. After the methanol has evaporated, in each case one larva (L2-L3) of the army worm (Spodoptera frugiperda) is placed onto the feed, in 3 repetitions.
After the desired period of time, the kill in % is determined. 100% means that all animals have been killed; 0% means that none of the animals has been killed.

Aphis fabae = assay: Critical Concentration Test/root-systemic Action; assay type: in vivo; details: 20 ppm in soil; broad beans; leaves populated after 7 days, evaluation after a further 6 days
Description: Critical Concentration Test/root-systemic Action
Solvent: 4 parts by weight of acetone
as §2
To produce a suitable preparation of active compound, 1 part by weight of active compound is mixed with the stated amount of solvent, the stated amount of emulsifier is added and the concentrate is diluted with water to the desired concentration.
The preparation of active compound is mixed intimately with soil. The concentration of the active compound in the preparation is virtually immaterial, only the amount by weight of active compound per volume unit of soil, which is stated in ppm (=mg/l), matters. The treated soil is filled into pots which are planted with pregerminated broad beans. Thus, the active compound can be taken up from the soil by the plant roots and transported into the leaves.
After a further 6 days, evaluation is carried out by counting or estimating the dead animals. The root-systemic action of the active compound is deduced from the number of animals killed. It is 100% when all test animals have been killed and 0% when the number of live test insects is identical to that of the untreated control.

[8] = not given; remark: listed apart in the source
Lucilia cuprina larvae = assay: Blowfly Larvae Test/development-inhibitory Action; assay type: in vivo; details: active compound concentration 100 ppm; flies hatched after 1.5 times the development period of untreated control
Description: Blowfly Larvae Test/development-inhibitory Action
Test animals: Lucilia cuprina larvae
Solvent: Dimethyl sulfoxide
20 mg of active compound are dissolved in 1 ml of dimethyl sulfoxide, more dilute concentrations are prepared by dilution with Dest.H2O.
About 20 Lucilia cuprina larvae are introduced into a test tube which contains about 1 cm^3 of horse meat and 0.5 ml of the preparation of active compound to be tested. After 24 hours and 48 hours, the effectiveness of the preparation of active compound is determined. The test tubes are transferred into beakers whose bottom is covered with sand. After a further 2 days, the test tubes are removed and the pupae are counted.
The effect of the preparation of active compound is assessed by the number of flies which have hatched after 1.5 times the development period of an untreated control. 100% means that no flies have hatched; 0% means that all flies have hatched normally.

[9] = tested on: peach aphid (Myzus persicae); assay: Myzus Test; assay type: in vivo; details: active compound concentration 0.1%; dipped cabbage leaves; after 6 days
Description: as §1, §2, §3
Cabbage leaves (Brassica oleracea) which are heavily infested by the peach aphid (Myzus persicae) are treated by being dipped into the preparation of active compound of the desired concentration.
as §4

Compound	kill [1] [%]	kill [5] [%]	kill [6] [%]	logP (pH = 2.3) [8]	kill [9] [%]	further results
CC(C)OCN1CCN(Cc2ccc(Cl)nc2)C1=NC#N	–	–	–	–	–	melting point: 85 to 87 °C
O=[N+]([O-])/N=c1\n(COCCBr)ccn1Cc1ccc(Cl)nc1	–	–	–	–	–	melting point: 90 to 92 °C
CCCOCN1CCN(Cc2cnc(Cl)s2)C1=N[N+](=O)[O-] [Example 2, 1-(2-chloro-thiazol-5-yl-methyl)-2-nitroimino-3-n-propoxymethyl-imidazolidine]	100	–	–	–	–	–
CCOCN1CCN(Cc2ccc(Cl)nc2)C1=N[N+](=O)[O-] [Example 4]	–	100	100	–	–	kill [2]: 100%; kill [3]: 100%; kill of the eggs or larvae [4]: 100%; kill [7]: 100%; kill (root-systemic action) (Aphis fabae): 100%
CCCCCCCCOCN1CCN(Cc2ccc(Cl)nc2)C1=N[N+](=O)[O-] [Example 5]	–	–	–	3.55	–	kill [2]: 100%; kill [3]: 95%; kill (root-systemic action) (Aphis fabae): 100%
CCOCn1ccn(Cc2ccc(Cl)nc2)c1=N[N+](=O)[O-] [Example 6]	–	–	–	1.09	–	–
CCCCCCCCOCn1ccn(Cc2ccc(Cl)nc2)c1=N[N+](=O)[O-] [Example 7]	–	–	–	–	–	kill [2]: 100%
COCn1ccn(Cc2ccc(Cl)nc2)c1=N[N+](=O)[O-] [Example 9]	–	–	–	0.78	–	kill [3]: 100%; development-inhibitory effect (Lucilia cuprina larvae): 100%
CCCOCN1CCN(Cc2ccc(Cl)nc2)C1=N[N+](=O)[O-] [Example 10]	100	100	100	1.64	100	development-inhibitory effect (Lucilia cuprina larvae): 100%
CCCOCn1ccn(Cc2ccc(Cl)nc2)c1=N[N+](=O)[O-] [Example 11]	–	–	–	–	100	development-inhibitory effect (Lucilia cuprina larvae): 100%
CC(C)OCN1CCN(Cc2ccc(Cl)nc2)C1=N[N+](=O)[O-] [Example 12]	100	100	100	–	100	development-inhibitory effect (Lucilia cuprina larvae): 100%
CC(C)COCN1CCN(Cc2ccc(Cl)nc2)C1=N[N+](=O)[O-] [Example 13]	100	100	–	2.00	100	development-inhibitory effect (Lucilia cuprina larvae): 100%
CC(C)OCn1ccn(Cc2ccc(Cl)nc2)c1=N[N+](=O)[O-] [Example 14]	–	100	–	–	100	–
CC(C)COCn1ccn(Cc2ccc(Cl)nc2)c1=N[N+](=O)[O-] [Example 15]	–	100	–	–	100	–
COCN1CCN(Cc2cnc(Cl)s2)C1=N[N+](=O)[O-] [Example 16]	–	–	–	1.14	100	–
CCOCN1CCN(Cc2cnc(Cl)s2)C1=N[N+](=O)[O-] [Example 17]	100	–	100	1.40	100	–
CC(C)OCN1CCN(Cc2cnc(Cl)s2)C1=N[N+](=O)[O-] [Example 18]	100	100	100	1.65	100	–
CC(C)COCN1CCN(Cc2cnc(Cl)s2)C1=N[N+](=O)[O-] [Example 19]	–	100	100	2.12	–	–

Compound	kill [1] [%]	kill [5] [%]	kill [6] [%]	logP (pH = 2.3) [8]	kill [9] [%]	further results
CC(C)(C)COCN1CCN(Cc2ccc(Cl)nc2)C1=N[N+](=O)[O-] [Example 20]	100	–	–	–	100	–
CCC(C)OCN1CCN(Cc2ccc(Cl)nc2)C1=N[N+](=O)[O-] (centres unmarked) [Example 21]	–	100	100	1.86	–	–
CCCCCOCN1CCN(Cc2ccc(Cl)nc2)C1=N[N+](=O)[O-] [Example 22]	–	–	–	2.35	–	–
CCCCCCOCN1CCN(Cc2ccc(Cl)nc2)C1=N[N+](=O)[O-] [Example 23]	–	–	–	2.73	–	–
COCCOCN1CCN(Cc2ccc(Cl)nc2)C1=N[N+](=O)[O-] [Example 24]	–	100	–	1.16	–	–
CC(C)(C)C(=O)OCN1CCN(Cc2ccc(Cl)nc2)C1=N[N+](=O)[O-] [Example 25]	100	100	100	–	100	–
COCN1CCN(Cc2ccc(Cl)nc2)C1=NC#N [Example 29]	–	–	–	1.32	–	–
COCCOCN1CCN(Cc2ccc(Cl)nc2)C1=NC#N [Example 31]	–	–	–	1.40	–	–
CCCOCN1CCN(Cc2ccc(Cl)nc2)C1=NC#N [Example 32]	–	–	–	1.89	–	–
CC(=O)OCN1CCN(Cc2ccc(Cl)nc2)C1=N[N+](=O)[O-] [Example 33]	100	100	100	–	–	–
CCC(=O)OCN1CCN(Cc2ccc(Cl)nc2)C1=N[N+](=O)[O-] [Example 35]	100	–	100	1.50	–	–
CC(C)C(=O)OCN1CCN(Cc2ccc(Cl)nc2)C1=N[N+](=O)[O-] [Example 36]	100	100	100	–	100	–
CCCCOCN1CCN(Cc2ccc(Cl)nc2)C1=N[N+](=O)[O-] [Example 40]	–	–	–	1.98	–	–
CCCCOCn1ccn(Cc2ccc(Cl)nc2)c1=N[N+](=O)[O-] [Example 41]	–	–	–	1.72	–	–
CCN(CC)CCOCN1CCN(Cc2ccc(Cl)nc2)C1=N[N+](=O)[O-] [Example 43]	–	–	–	0.70	–	–
O=[N+]([O-])N=C1N(COCCBr)CCN1Cc1ccc(Cl)nc1 [Example 53]	–	–	–	1.64	–	–
CC(C)OCN1CCCN(Cc2ccc(Cl)nc2)C1=N[N+](=O)[O-] [Example 56]	–	–	–	1.34	–	–
